# Literature values as cited in PMC11756063, “The fibronectin-targeting PEG-FUD imaging probe shows enhanced uptake during fibrogenesis in experimental lung fibrosis” (Respiratory Research, 2025).
# Test system: fibrotic mouse lung
# Conditions: ref [9], [13], [65]
# Source text: This study has potential impact for the field of molecular imaging of lung fibrosis, as methods that permit more precise and intricate assessment of disease progression are needed in clinical practice. In pulmonary fibrosis, potential molecular imaging targets being developed represent various disease mechanisms, such as activity of pathogenic fibroblasts and macrophages, ECM deposition, as well as detection of pro-fibrotic integrins.
smiles,measurement,value
"OC[C@H]1OC(O)[C@H]([18F])[C@@H](O)[C@@H]1O (stereo partly shown) [[^18F]FDG, [^18F]-fluorodeoxyglucose]",pattern of uptake over the bleomycin model,peak uptake in the early phase of the bleomycin model that decline during the established phase
